Data: the NIST ThermoML archive (doi:10.1016/j.jct.2019.04.010)

Test: xn = mol fraction of the nth substance listed
Conditions: 100 kPa, Liquid; for viscosity: Concentric cylinders viscometry; for mass density: Vibrating tube method

CCCCn1cc[n+](C)c1.O=[N+]([O-])[O-] [1-butyl-3-methylimidazolium nitrate] + CCC(C)O
Conditions | mass density [kg/m3] | viscosity [mPa·s]
293.15 K, x1 = 0.0813 | 860.4 | 5.41
293.15 K, x1 = 0.1595 | 904.7 | 7.32
293.15 K, x1 = 0.2402 | 944.9 | 10.17
293.15 K, x1 = 0.35 | 991.2 | 15.43
293.15 K, x1 = 0.4403 | 1023.7 | 21.65
293.15 K, x1 = 0.5597 | 1060.8 | 33.63
293.15 K, x1 = 0.6503 | 1085.4 | 46.65
293.15 K, x1 = 0.7398 | 1107 | 65
293.15 K, x1 = 0.8502 | 1130.6 | 100.4
293.15 K, x1 = 0.9399 | 1147.7 | 156.4
293.15 K, x1 = 1 | 1158.3 | 223.54
298.15 K, x1 = 0.0813 | 856.7 | 4.47
298.15 K, x1 = 0.1595 | 901.2 | 6.12
298.15 K, x1 = 0.2402 | 941.3 | 8.37
298.15 K, x1 = 0.35 | 987.7 | 12.73
298.15 K, x1 = 0.4403 | 1020.3 | 17.92
298.15 K, x1 = 0.5597 | 1057.5 | 27.57
298.15 K, x1 = 0.6503 | 1082.1 | 38.2
298.15 K, x1 = 0.7398 | 1103.8 | 52.3
298.15 K, x1 = 0.8502 | 1127.6 | 79.2
298.15 K, x1 = 0.9399 | 1144.7 | 119
298.15 K, x1 = 1 | 1155.2 | 168.97
303.15 K, x1 = 0.0813 | 852.6 | 3.85
303.15 K, x1 = 0.1595 | 897.3 | 5.31
303.15 K, x1 = 0.2402 | 937.4 | 7.21
303.15 K, x1 = 0.35 | 984.1 | 10.87
303.15 K, x1 = 0.4403 | 1016.8 | 15.15
303.15 K, x1 = 0.5597 | 1054.2 | 22.92
303.15 K, x1 = 0.6503 | 1078.9 | 30.82
303.15 K, x1 = 0.7398 | 1100.8 | 41.3
303.15 K, x1 = 0.8502 | 1124.6 | 62.3
303.15 K, x1 = 0.9399 | 1141.8 | 92
303.15 K, x1 = 1 | 1152.3 | 125.36
308.15 K, x1 = 0.0813 | 848.6 | 3.32
308.15 K, x1 = 0.1595 | 893.3 | 4.58
308.15 K, x1 = 0.2402 | 933.6 | 6.25
308.15 K, x1 = 0.35 | 980.4 | 9.38
308.15 K, x1 = 0.4403 | 1013.3 | 12.93
308.15 K, x1 = 0.5597 | 1050.9 | 19.27
308.15 K, x1 = 0.6503 | 1075.7 | 25.57
308.15 K, x1 = 0.7398 | 1097.6 | 33.2
308.15 K, x1 = 0.8502 | 1121.7 | 48.8
308.15 K, x1 = 0.9399 | 1138.9 | 70.7
308.15 K, x1 = 1 | 1149.3 | 96.74
313.15 K, x1 = 0.0813 | 844.6 | 2.83
313.15 K, x1 = 0.1595 | 889.5 | 3.98
313.15 K, x1 = 0.2402 | 929.8 | 5.46
313.15 K, x1 = 0.35 | 976.9 | 8.16
313.15 K, x1 = 0.4403 | 1009.9 | 11.18
313.15 K, x1 = 0.5597 | 1047.7 | 16.39
313.15 K, x1 = 0.6503 | 1072.7 | 21.49
313.15 K, x1 = 0.7398 | 1094.7 | 28
313.15 K, x1 = 0.8502 | 1118.8 | 40
313.15 K, x1 = 0.9399 | 1136.1 | 56.6
313.15 K, x1 = 1 | 1146.5 | 75.12
318.15 K, x1 = 0.0813 | 840.2 | 2.44
318.15 K, x1 = 0.1595 | 885.3 | 3.47
318.15 K, x1 = 0.2402 | 925.8 | 4.81
318.15 K, x1 = 0.35 | 973.4 | 7.15
318.15 K, x1 = 0.4403 | 1006.6 | 9.72
318.15 K, x1 = 0.5597 | 1044.5 | 14.08
318.15 K, x1 = 0.6503 | 1069.6 | 18.26
318.15 K, x1 = 0.7398 | 1091.8 | 23.5
318.15 K, x1 = 0.8502 | 1116.1 | 33
318.15 K, x1 = 0.9399 | 1133.5 | 44.4
318.15 K, x1 = 1 | 1143.8 | 56.28
323.15 K, x1 = 0.0813 | 836 | 2.16
323.15 K, x1 = 0.1595 | 881.2 | 3.06
323.15 K, x1 = 0.2402 | 921.9 | 4.26
323.15 K, x1 = 0.35 | 969.7 | 6.32
323.15 K, x1 = 0.4403 | 1003.1 | 8.53
323.15 K, x1 = 0.5597 | 1041.3 | 12.21
323.15 K, x1 = 0.6503 | 1066.5 | 15.68
323.15 K, x1 = 0.7398 | 1088.9 | 19.7
323.15 K, x1 = 0.8502 | 1113.4 | 27.2
323.15 K, x1 = 0.9399 | 1130.9 | 36.6
323.15 K, x1 = 1 | 1141.2 | 45.17

CCCCn1cc[n+](C)c1.O=[N+]([O-])[O-] [1-butyl-3-methylimidazolium nitrate] + CCCC(C)O
Conditions | mass density [kg/m3] | viscosity [mPa·s]
293.15 K, x1 = 0.0812 | 854 | 4.47
293.15 K, x1 = 0.1604 | 893.6 | 5.28
293.15 K, x1 = 0.2403 | 929.8 | 6.43
293.15 K, x1 = 0.3499 | 974.3 | 9.03
293.15 K, x1 = 0.4399 | 1007.1 | 12.56
293.15 K, x1 = 0.5604 | 1046.7 | 20.29
293.15 K, x1 = 0.6505 | 1073.3 | 30.81
293.15 K, x1 = 0.7405 | 1097.8 | 47.6
293.15 K, x1 = 0.8501 | 1124.9 | 83.3
293.15 K, x1 = 0.9396 | 1145.3 | 143.6
293.15 K, x1 = 1 | 1158.3 | 223.54
298.15 K, x1 = 0.0812 | 850.4 | 3.69
298.15 K, x1 = 0.1604 | 890.1 | 4.35
298.15 K, x1 = 0.2403 | 926.4 | 5.39
298.15 K, x1 = 0.3499 | 971.1 | 7.59
298.15 K, x1 = 0.4399 | 1004 | 10.53
298.15 K, x1 = 0.5604 | 1043.5 | 17.14
298.15 K, x1 = 0.6505 | 1070.3 | 25.47
298.15 K, x1 = 0.7405 | 1094.8 | 37.96
298.15 K, x1 = 0.8501 | 1122 | 63.4
298.15 K, x1 = 0.9396 | 1142.3 | 105.6
298.15 K, x1 = 1 | 1155.2 | 168.97
303.15 K, x1 = 0.0812 | 846.5 | 3.16
303.15 K, x1 = 0.1604 | 886.5 | 3.72
303.15 K, x1 = 0.2403 | 922.9 | 4.65
303.15 K, x1 = 0.3499 | 967.8 | 6.64
303.15 K, x1 = 0.4399 | 1000.7 | 9.14
303.15 K, x1 = 0.5604 | 1040.5 | 14.61
303.15 K, x1 = 0.6505 | 1067.4 | 21.35
303.15 K, x1 = 0.7405 | 1092.1 | 31.14
303.15 K, x1 = 0.8501 | 1119.3 | 50.3
303.15 K, x1 = 0.9396 | 1139.5 | 81.8
303.15 K, x1 = 1 | 1152.3 | 125.36
308.15 K, x1 = 0.0812 | 842.8 | 2.74
308.15 K, x1 = 0.1604 | 882.7 | 3.25
308.15 K, x1 = 0.2403 | 919.4 | 4.08
308.15 K, x1 = 0.3499 | 964.4 | 5.73
308.15 K, x1 = 0.4399 | 997.5 | 7.89
308.15 K, x1 = 0.5604 | 1037.4 | 12.37
308.15 K, x1 = 0.6505 | 1064.4 | 17.74
308.15 K, x1 = 0.7405 | 1089.1 | 25.35
308.15 K, x1 = 0.8501 | 1116.3 | 40
308.15 K, x1 = 0.9396 | 1136.5 | 63.4
308.15 K, x1 = 1 | 1149.3 | 96.74
313.15 K, x1 = 0.0812 | 838.8 | 2.3
313.15 K, x1 = 0.1604 | 879.2 | 2.8
313.15 K, x1 = 0.2403 | 916 | 3.55
313.15 K, x1 = 0.3499 | 961.2 | 5.05
313.15 K, x1 = 0.4399 | 994.4 | 6.97
313.15 K, x1 = 0.5604 | 1034.4 | 10.51
313.15 K, x1 = 0.6505 | 1061.4 | 14.75
313.15 K, x1 = 0.7405 | 1086.1 | 20.64
313.15 K, x1 = 0.8501 | 1113.4 | 31.9
313.15 K, x1 = 0.9396 | 1133.8 | 50
313.15 K, x1 = 1 | 1146.5 | 75.12
318.15 K, x1 = 0.0812 | 834.7 | 1.95
318.15 K, x1 = 0.1604 | 875.2 | 2.4
318.15 K, x1 = 0.2403 | 912.1 | 3.05
318.15 K, x1 = 0.3499 | 957.5 | 4.37
318.15 K, x1 = 0.4399 | 990.9 | 5.91
318.15 K, x1 = 0.5604 | 1031.1 | 8.91
318.15 K, x1 = 0.6505 | 1058.3 | 12.21
318.15 K, x1 = 0.7405 | 1083.2 | 17.09
318.15 K, x1 = 0.8501 | 1110.7 | 26.5
318.15 K, x1 = 0.9396 | 1131 | 40
318.15 K, x1 = 1 | 1143.8 | 56.28
323.15 K, x1 = 0.0812 | 830.7 | 1.66
323.15 K, x1 = 0.1604 | 871.4 | 1.99
323.15 K, x1 = 0.2403 | 908.7 | 2.49
323.15 K, x1 = 0.3499 | 954.3 | 3.56
323.15 K, x1 = 0.4399 | 987.9 | 4.81
323.15 K, x1 = 0.5604 | 1028.2 | 7.13
323.15 K, x1 = 0.6505 | 1055.5 | 9.68
323.15 K, x1 = 0.7405 | 1080.5 | 13.67
323.15 K, x1 = 0.8501 | 1108.1 | 21.47
323.15 K, x1 = 0.9396 | 1128.4 | 32.3
323.15 K, x1 = 1 | 1141.2 | 45.17
